Test results reported in the NIST ThermoML archive (doi:10.1021/je0498560).

Experiment: xn = mol fraction of the nth substance listed
Conditions: Liquid

CN1CCCC1=O [N-methylpyrrolidone] + O=C=O
313 K
Conditions	molar volume [m3/mol]
x2 = 0.104	8.91e-05
x2 = 0.19	8.48e-05
x2 = 0.242	8.26e-05
x2 = 0.311	7.9e-05
x2 = 0.374	7.57e-05
x2 = 0.437	7.32e-05
x2 = 0.499	6.98e-05
x2 = 0.565	6.66e-05
x2 = 0.629	6.23e-05
x2 = 0.725	5.67e-05
x2 = 0.816	5.34e-05

FC(F)(F)C(F)(F)C(F)(F)C(F)(F)C(F)(F)C(F)(F)F [perfluorohexane] + O=C=O
313 K
Conditions	molar volume [m3/mol]
x2 = 0.146	0.0001867
x2 = 0.163	0.000187
x2 = 0.262	0.0001742
x2 = 0.27	0.0001732
x2 = 0.339	0.0001655
x2 = 0.424	0.0001511
x2 = 0.474	0.0001448
x2 = 0.547	0.0001324
x2 = 0.615	0.0001235
x2 = 0.665	0.0001165
x2 = 0.721	0.0001062
x2 = 0.765	9.7e-05
x2 = 0.776	9.49e-05
x2 = 0.811	9.03e-05
x2 = 0.836	9.17e-05

Cc1ccccc1 [toluene] + O=C=O
323 K
Conditions	molar volume [m3/mol]
x2 = 0.091	0.0001014
x2 = 0.175	9.72e-05
x2 = 0.26	9.21e-05
x2 = 0.335	8.76e-05
x2 = 0.408	8.37e-05
x2 = 0.48	8.02e-05
x2 = 0.524	7.82e-05
x2 = 0.583	7.22e-05
x2 = 0.644	6.72e-05
x2 = 0.715	6.46e-05
x2 = 0.764	6.32e-05
x2 = 0.821	6.23e-05
x2 = 0.865	6.26e-05
x2 = 0.883	6.35e-05

ClCCl [dichloromethane] + O=C=O
313 K
Conditions	molar volume [m3/mol]
x2 = 0.044	6.51e-05
x2 = 0.114	6.32e-05
x2 = 0.188	6.24e-05
x2 = 0.269	6.13e-05
x2 = 0.444	5.87e-05
x2 = 0.533	5.74e-05
x2 = 0.644	5.64e-05
x2 = 0.738	5.32e-05
x2 = 0.83	5.42e-05
x2 = 0.859	5.82e-05

C[N+](=O)[O-] [nitromethane] + O=C=O
Conditions	molar volume [m3/mol]
298 K, x2 = 0.12	4.93e-05
298 K, x2 = 0.238	4.83e-05
298 K, x2 = 0.346	4.76e-05
298 K, x2 = 0.457	4.74e-05
298 K, x2 = 0.552	4.74e-05
298 K, x2 = 0.678	4.71e-05
298 K, x2 = 0.747	4.77e-05
298 K, x2 = 0.81	4.78e-05
298 K, x2 = 0.855	4.87e-05
298 K, x2 = 0.876	4.91e-05
313 K, x2 = 0.048	5.88e-05
313 K, x2 = 0.119	5.71e-05
313 K, x2 = 0.183	5.56e-05
313 K, x2 = 0.254	5.51e-05
313 K, x2 = 0.32	5.45e-05
313 K, x2 = 0.385	5.37e-05
313 K, x2 = 0.479	5.32e-05
313 K, x2 = 0.546	5.23e-05
313 K, x2 = 0.627	5.09e-05
313 K, x2 = 0.727	4.99e-05
313 K, x2 = 0.791	5.08e-05

CC(C)O [propan-2-ol] + O=C=O
313 K
Conditions	molar volume [m3/mol]
x2 = 0.018	7.97e-05
x2 = 0.065	7.88e-05
x2 = 0.133	7.62e-05
x2 = 0.21	7.45e-05
x2 = 0.3	7.17e-05
x2 = 0.401	6.85e-05
x2 = 0.51	6.4e-05
x2 = 0.639	6.06e-05
x2 = 0.725	5.99e-05
x2 = 0.788	6.01e-05
